Test results from patent US8722703B2, “Fused amino pyridines for the treatment of brain tumors” (Curis, Inc., priority 2009, dated 2014).

What was measured:
HSP90 = HSP90 (Homo sapiens, UniProt P07900); assay: HSP90 competition binding (fluorescence polarization) assay
Text: (b) HSP90 Competition Binding (Fluorescence Polarization) Assay.
A fluorescein isothiocyanate (FITC) labeled GM was purchase from InvivoGen (ant-fgl-1). The interaction between HSP90 and labeled GM forms the basis for the fluorescence polarization assay. A free and fast-tumbling FITC labeled GM emits random light with respect to the plane of polarization plane of excited light, resulting in a lower polarization degree (mP) value. When GM is bound to HSP90, the complex tumble slower and the emitted light is polarized, resulting in a higher mP value. […] The assay buffer contained 20 mM HEPES (pH 7.3), 50 mM KCl, 1 mM DTT, 50 mM MgCl2, 20 mM Na2MoO4, 0.01% NP40 with 0.1 mg/ml bovine gamma-globulin.

[1] = Mouse brain concentrations after oral 30 mg/Kg in nude mice with U87MG xenografts; assay type: in vivo; details: oral (30 mg/Kg) delivery, U87MG xenografts; for concentration at 0 hr / concentration at 0.5 hr / concentration at 1 hr / concentration at 3 hr / concentration at 6 hr / concentration at 24 hr: female, athymic nude (CD-1 nu/nu), mouse, brain, read-out: HSP90 Compounds in Mouse Brain
[2] = system: H1975 orthotopic lung tumor; assay: Efficacy study in the H1975 orthotopic lung tumor (NSCLC) model; assay type: in vivo, nude mice; details: Compound-15 120 mg/kg orally once every two days, erlotinib 50 mg/kg orally once a day, 5 wk
Protocol: Dose-dependent efficacy study of Compound-15 in H1975 orthotopic lung tumor model (n=11): Mice were treated with Compound-15 (20, 40, 80, and 120 mg/kg) starting 4 day after tumor implantation.

[3] = system: A549 orthotopic lung tumor; assay: Efficacy study in A549 orthotopic lung tumor model; assay type: in vivo, nude mice; details: Compound-15 120 mg/kg orally once every two days, erlotinib 50 mg/kg orally once a day, 4 wk
H1975 intracranial tumor = assay: Efficacy study in H1975 intracranial metastasis model; assay type: in vivo, nude mice; details: Compound-15 120 mg/kg orally once every two days, lapatinib 75 mg/kg orally twice a day, 4 wk

Structure (SMILES) | IC50 (HSP90) | concentration at 0 hr [1] | concentration at 0.5 hr [1] | concentration at 1 hr [1] | concentration at 3 hr [1] | concentration at 6 hr [1] | concentration at 24 hr [1] | AUC in mouse brain [1] | other results
CC(C)(C)CNCCCn1c(Sc2cc3c(cc2Br)OCO3)nc2c(N)nccc21 [Compound 10] | 0.1 to 1 µM |  |  |  |  |  |  |  | 
C#Cc1cccc(Nc2ncnc3cc(OCCOC)c(OCCOC)cc23)c1 [erlotinib, reference compound] |  |  |  |  |  |  |  |  | animal survival [2]: no therapeutic benefit; animal survival [3]: no antitumor effect
CS(=O)(=O)CCNCc1ccc(-c2ccc3ncnc(Nc4ccc(OCc5cccc(F)c5)c(Cl)c4)c3c2)o1 [lapatinib, reference compound] |  |  |  |  |  |  |  |  | animal survival (H1975 intracranial tumor): lack of lapatinib efficacy

Now from value to molecule, other results behind:

IC50 (HSP90) | concentration at 0 hr [1] | concentration at 0.5 hr [1] | concentration at 1 hr [1] | concentration at 3 hr [1] | concentration at 6 hr [1] | concentration at 24 hr [1] | AUC in mouse brain [1] | Structure (SMILES) | other results
0.1 to 1 µM |  |  |  |  |  |  |  | CC(C)(C)CNCCCn1c(Sc2cc3c(cc2I)OCO3)nc2c(N)nccc21 [Compound 11, 2-(6-iodobenzo[d][1,3]dioxol-5-ylthio)-1-(3-(neopentylamino)propyl)-1H-imidazo[4,5-c]pyridin-4-amine] | 
 | 0 ng/g | 2.5 ng/g | 2.2 ng/g | 3.7 ng/g | 0.9 ng/g | 1.3 ng/g | 36.7 ng·h/g | NC(=O)CCCn1c(Sc2cc3c(cc2I)OCO3)nc2c(N)nccc21 [Compound 22] | 
 | 0 ng/g | 5.4 ng/g | 13.6 ng/g | 21.5 ng/g | 9.1 ng/g | 3 ng/g | 231.8 ng·h/g | CC(C)(C)CNCCn1c(Sc2cc3c(cc2S(C)(=O)=O)OCO3)nc2c(N)nccc21 [Compound 23] | 
